pKi: −log10 of the molar value. “Also recorded” adds a separate entry of the source.

We go through 22 compounds from paper PMC10348020, “Carbonic anhydrase inhibitory activity of phthalimide-capped benzene sulphonamide derivatives” (Journal of Enzyme Inhibition and Medicinal Chemistry, 2023).

One assay concerns the target T1, hCA II (Homo sapiens, UniProt P00918).
T1 construct: hCA isoenzymes I and II used in these experiments were obtained, as earlier reported by our groups
Description: stopped-flow CO2 hydrase assay, hCA II. The assay is classed as biochemical. Conditions: stopped-flow CO2 hydrase assay; mean from three different assays, errors ± 5–10%. The protocol:
(§1) The CA isoenzyme assay was performed using a stopped-flow Applied Photophysics (SX.18V-R; Oxford, UK) instrument using Khalifah’s technique. hCA isoenzymes I and II used in these experiments were obtained, as earlier reported by our groups.
As to `CC(C)NS(=O)(=O)c1ccc(N2C(=O)c3ccccc3C2=O)cc1` [Compound 2], the pKi (usually the negative decadic logarithm of the Ki, by convention in mol/L) was less than 5.00.
Still for that read-out and setting: next, `CN(C)S(=O)(=O)c1ccc(N2C(=O)c3ccccc3C2=O)cc1` [Compound 4]: 5.04; `CCN(CC)S(=O)(=O)c1ccc(N2C(=O)c3ccccc3C2=O)cc1` [Compound 5]: less than 5.00; `O=C1c2ccccc2C(=O)N1c1ccc(S(=O)(=O)N(c2ccccc2)c2ccccc2)cc1` [Compound 6]: less than 5.00.
Same read-out and setting: next, `O=C1c2ccccc2C(=O)N1c1ccc(S(=O)(=O)N2CCCCC2)cc1` [Compound 7]: less than 5.00.
The same measure, in the same setting: under `CN1CCN(S(=O)(=O)c2ccc(N3C(=O)c4ccccc4C3=O)cc2)CC1` [Compound 8] stands less than 5.00; under `O=C1c2ccccc2C(=O)N1c1ccc(S(=O)(=O)Nc2ccccc2)cc1` [Compound 9], less than 5.00; under `O=C1c2ccccc2C(=O)N1c1ccc(S(=O)(=O)Nc2ccccc2O)cc1` [Compound 10], 5.05.
Take `COc1cccc(NS(=O)(=O)c2ccc(N3C(=O)c4ccccc4C3=O)cc2)c1` [Compound 11]: the pKi was less than 5.00.
Same read-out and setting: next, `COc1ccc(NS(=O)(=O)c2ccc(N3C(=O)c4ccccc4C3=O)cc2)cc1` [Compound 12]: less than 5.00.
As for `O=C1c2ccccc2C(=O)N1c1ccc(S(=O)(=O)Nc2ccccc2Cl)cc1` [Compound 13], the pKi is less than 5.00.
With `O=C1c2ccccc2C(=O)N1c1ccc(S(=O)(=O)Nc2cccc(Cl)c2)cc1` [Compound 14], the pKi was less than 5.00.
With `O=C1c2ccccc2C(=O)N1c1ccc(S(=O)(=O)Nc2ccc(Cl)cc2)cc1` [Compound 15], the pKi was less than 5.00.
On the same count and under the same terms, next, `Cc1ccccc1NS(=O)(=O)c1ccc(N2C(=O)c3ccccc3C2=O)cc1` [Compound 16]: less than 5.00.
On the same count and under the same terms, under `Cc1cccc(NS(=O)(=O)c2ccc(N3C(=O)c4ccccc4C3=O)cc2)c1` [Compound 17] stands less than 5.00.
The same measure, in the same setting: under `Cc1ccc(NS(=O)(=O)c2ccc(N3C(=O)c4ccccc4C3=O)cc2)cc1` [Compound 18] stands less than 5.00; under `CCc1ccc(NS(=O)(=O)c2ccc(N3C(=O)c4ccccc4C3=O)cc2)cc1` [Compound 19], less than 5.00; under `O=C1c2ccccc2C(=O)N1c1ccc(S(=O)(=O)Nc2cccc([N+](=O)[O-])c2)cc1` [Compound 20], less than 5.00.
The compound `O=C1c2ccccc2C(=O)N1c1ccc(S(=O)(=O)Nc2ccc([N+](=O)[O-])cc2)cc1` [Compound 21] had a pKi of less than 5.00.
The same measure, in the same setting: under `O=C(O)c1ccc(NS(=O)(=O)c2ccc(N3C(=O)c4ccccc4C3=O)cc2)cc1` [Compound 22] stands less than 5.00.

Still in this assay, the particulars now being: stopped-flow assay.
For `CN(C)S(=O)(=O)c1ccc(N2C(=O)c3ccccc3C2=O)cc1` [Compound 4], the “hCA II inhibition (in words)” value is listed as “showed hCA II inhibition at nanomolar concentrations; also recorded: inhibited hCA II”.
Regarding `O=C1c2ccccc2C(=O)N1c1ccc(S(=O)(=O)Nc2ccccc2O)cc1` [Compound 10], the “hCA II inhibition (in words)” value is reported as “showed hCA II inhibition at nanomolar concentrations; also recorded: inhibited hCA II”.
On the same count and under the same terms, next, `CCc1ccc(NS(=O)(=O)c2ccc(N3C(=O)c4ccccc4C3=O)cc2)cc1` [Compound 19]: “inactive”.

The next assay deals with T2, hCA I (Homo sapiens, UniProt P00915).
T2 construct: hCA isoenzymes I and II used in these experiments were obtained, as earlier reported by our groups
T2 sequence (P00915 whole entry): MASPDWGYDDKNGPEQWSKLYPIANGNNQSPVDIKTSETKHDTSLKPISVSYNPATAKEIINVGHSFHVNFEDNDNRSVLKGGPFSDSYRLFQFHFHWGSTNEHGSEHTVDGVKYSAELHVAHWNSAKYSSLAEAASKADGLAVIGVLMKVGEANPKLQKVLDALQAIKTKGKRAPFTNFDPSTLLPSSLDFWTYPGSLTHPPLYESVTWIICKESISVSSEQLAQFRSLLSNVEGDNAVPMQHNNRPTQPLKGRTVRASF
Description: stopped-flow CO2 hydrase assay, hCA I. Format: biochemical. Conditions: stopped-flow CO2 hydrase assay; mean from three different assays, errors ± 5–10%. The protocol: as §1
For `CC(C)NS(=O)(=O)c1ccc(N2C(=O)c3ccccc3C2=O)cc1` [Compound 2], the pKi is less than 5.00.
Still for that read-out and setting: under `O=C1c2ccccc2C(=O)N1c1ccc(S(=O)(=O)NCCc2ccccc2)cc1` [Compound 3] stands 5.13; under `CN(C)S(=O)(=O)c1ccc(N2C(=O)c3ccccc3C2=O)cc1` [Compound 4], less than 5.00.
Still for that read-out and setting: under `CCN(CC)S(=O)(=O)c1ccc(N2C(=O)c3ccccc3C2=O)cc1` [Compound 5] stands less than 5.00.
Still for that read-out and setting: under `O=C1c2ccccc2C(=O)N1c1ccc(S(=O)(=O)N(c2ccccc2)c2ccccc2)cc1` [Compound 6] stands less than 5.00; under `O=C1c2ccccc2C(=O)N1c1ccc(S(=O)(=O)N2CCCCC2)cc1` [Compound 7], less than 5.00.
`CN1CCN(S(=O)(=O)c2ccc(N3C(=O)c4ccccc4C3=O)cc2)CC1` [Compound 8] showed a pKi of less than 5.00.
`O=C1c2ccccc2C(=O)N1c1ccc(S(=O)(=O)Nc2ccccc2)cc1` [Compound 9] had a pKi of less than 5.00.
The same measure, in the same setting: next, `O=C1c2ccccc2C(=O)N1c1ccc(S(=O)(=O)Nc2ccccc2O)cc1` [Compound 10]: 5.26; `COc1cccc(NS(=O)(=O)c2ccc(N3C(=O)c4ccccc4C3=O)cc2)c1` [Compound 11]: less than 5.00.
On the same count and under the same terms, next, `COc1ccc(NS(=O)(=O)c2ccc(N3C(=O)c4ccccc4C3=O)cc2)cc1` [Compound 12]: less than 5.00; `O=C1c2ccccc2C(=O)N1c1ccc(S(=O)(=O)Nc2ccccc2Cl)cc1` [Compound 13]: less than 5.00.
In turn, `O=C1c2ccccc2C(=O)N1c1ccc(S(=O)(=O)Nc2cccc(Cl)c2)cc1` [Compound 14] gave a pKi of less than 5.00.
For `O=C1c2ccccc2C(=O)N1c1ccc(S(=O)(=O)Nc2ccc(Cl)cc2)cc1` [Compound 15], the pKi is 5.13.
Compound `Cc1ccccc1NS(=O)(=O)c1ccc(N2C(=O)c3ccccc3C2=O)cc1` [Compound 16] showed a pKi of less than 5.00.
In turn, `Cc1cccc(NS(=O)(=O)c2ccc(N3C(=O)c4ccccc4C3=O)cc2)c1` [Compound 17] gave a negative logarithm of the Ki (pKi) of less than 5.00.
Still for that read-out and setting: under `Cc1ccc(NS(=O)(=O)c2ccc(N3C(=O)c4ccccc4C3=O)cc2)cc1` [Compound 18] stands less than 5.00.
On the same count and under the same terms, under `CCc1ccc(NS(=O)(=O)c2ccc(N3C(=O)c4ccccc4C3=O)cc2)cc1` [Compound 19] stands less than 5.00; under `O=C1c2ccccc2C(=O)N1c1ccc(S(=O)(=O)Nc2cccc([N+](=O)[O-])c2)cc1` [Compound 20], less than 5.00.
Same read-out and setting: next, `O=C1c2ccccc2C(=O)N1c1ccc(S(=O)(=O)Nc2ccc([N+](=O)[O-])cc2)cc1` [Compound 21]: less than 5.00; `O=C(O)c1ccc(NS(=O)(=O)c2ccc(N3C(=O)c4ccccc4C3=O)cc2)cc1` [Compound 22]: less than 5.00.

The assay is the same for the next values; noted with them: stopped-flow assay.
Take `O=C1c2ccccc2C(=O)N1c1ccc(S(=O)(=O)NCCc2ccccc2)cc1` [Compound 3]: the “hCA I inhibition (in words)” value is given as “showed hCA I inhibition; also recorded: inhibited hCA I”.
Same read-out and setting: next, `O=C1c2ccccc2C(=O)N1c1ccc(S(=O)(=O)Nc2ccccc2O)cc1` [Compound 10]: “showed hCA I inhibition; also recorded: inhibited hCA I”; `O=C1c2ccccc2C(=O)N1c1ccc(S(=O)(=O)Nc2ccc(Cl)cc2)cc1` [Compound 15]: “showed hCA I inhibition; also recorded: inhibited hCA I”; `CCc1ccc(NS(=O)(=O)c2ccc(N3C(=O)c4ccccc4C3=O)cc2)cc1` [Compound 19]: “inactive”.

The next assay has as its system dengue viral protease.
Assay: not given
More on the design: method as in PMID 26247308. Conditions: previously reported by the group; cited from earlier work.
Take `NS(=O)(=O)c1ccc(N2C(=O)c3ccccc3C2=O)cc1` [Compound 1]: the “dengue viral protease inhibition (in words)” value is “inactive”.
Turning to `CCc1ccc(NS(=O)(=O)c2ccc(N3C(=O)c4ccccc4C3=O)cc2)cc1` [Compound 19], the “dengue viral protease inhibition (in words)” value is “potent dengue protease inhibitor”.
